# Data: US20220288091A1, “Method for Improving Insulin Sensitivity” (priority 2019, published 2022)
# Where “and” joins values, the source holds several entries; their conditions need not be identical. Equal values may be shown once.
# How the values were obtained:
# Assay type in all cases: in vivo, human
# [1] = test system: overweight or obese subjects with prediabetes or mild type 2 diabetes; test: Fasting plasma glucose, insulin and fasting surrogate indices (HOMA-IR, QUICKI, Adipo-IR) in placebo-controlled crossover trial; details: 50 mg every 6 hours for 9 days, n=16
# Method: A randomized, placebo-controlled, double-blind crossover trial was conducted to evaluate the use of an anti-glucocorticoid as a means for ameliorating insulin resistance. Mifepristone, 50 mg, or a placebo, was administered every six hours for nine days to sixteen overweight or obese (BMI 25-37 kg/m^2) subjects (seven women). Participant ages ranged from 48 to 64 years. Ten had prediabetes and six had mild diabetes type II (HgbA1c less than 7%). Treatment of the glucose disorder with diet or a stable dose of metformin (used by two patients) was maintained for three (3) months before the study. The interventions were nine days of mifepristone or placebo treatment followed by a six (6) to eight (8) week wash out and cross over to the other arm. At baseline and at the end of each treatment period, parameters of insulin sensitivity were assessed by a frequently sampled intravenous glucose tolerance test (FSIVGTT) and an oral glucose tolerance test (OGTT). A whole body glucose disposal index of insulin sensitivity (SI) was derived using a minimal model analysis. Adipose tissue-SI, which reflects insulin-induced free fatty acid suppression, was estimated by the log-linear slope of free fatty acid levels and the AUC of insulin during the FSIVGTT. Matsuda index, oral glucose insulin sensitivity index (OGIS, ml/min/m^2), and hepatic insulin resistance index (HIRI, mg/dl×microU/ml×10^5) were derived from OGTT. Adipo-IR, a surrogate measure of adipocyte insulin resistance, was calculated by multiplying fasting concentrations of free fatty acids and insulin (mmol×pmol/L). Comparison of various post-treatment parameters was performed using crossover ANOVA. This analysis takes into account specific treatment arm, treatment order, and treatment effects. Thus, carryover effects were explicitly tested for in the crossover study.
# The inventors conducted a random, triple-blinded, placebo-controlled, cross-over study using mifepristone (50 mg every 6 hours, 200 mg total daily dose) in overweight/obese individuals (n=16, 44% female) with pre-DM (pre-diabetes mellitus) or mild type 2 diabetes mellitus (glycated hemoglobin A1C […]). Mifepristone or placebo was administered for 9 days followed by a washout period of 6 to 8 weeks, and then crossover to the other treatment arm. At baseline and after each treatment period, the oral glucose tolerance test and frequently sampled intravenous glucose tolerance test were performed. Insulin sensitivity (SI) was measured using Matsuda index and oral glucose insulin sensitivity index (OGISI). Hepatic SI was assessed using hepatic insulin resistance index (HIRI), and adipose tissue SI was assessed using adipo-IR adipose tissue insulin sensitivity index (ATISI).
# The study in this example used a prospective, randomized, double-blind placebo-controlled, cross-over design in which eligible subjects were randomized in blocks of six to the initial arm of the study: either placebo or mifepristone (50 mg tablets every 6 hours) for 9 days. This was followed by a 6-8 week washout period. Subjects were then crossed over to the other treatment arm for an additional 9 days. The study was conducted at the National Institutes of Health (NIH) Clinical Center, Bethesda, Md., U.S.
# To reduce potential variability associated with estrogen in premenopausal women, testing was performed in the early follicular phase (days 1-7 of menstrual cycle). Baseline height and weight were measured after an overnight fast. […]
# [2] = test system: hypothalamic-pituitary-adrenal axis; test: 24-hour profile of ACTH and cortisol
# Method: (§1) To reduce potential variability associated with estrogen in premenopausal women, testing was performed in the early follicular phase (days 1-7 of menstrual cycle). Baseline height and weight were measured after an overnight fast. Subjects received an isocaloric regular diet during the inpatient part of the study, and those on metformin took the same dose throughout the study. Baseline testing took place took place over three inpatient days at the NIH Clinical Center, during which fasting blood was drawn, 24-hour urine was collected, 24-hour serial blood draws were obtained, and patients received both a […] (FSIVGTT) and a 75-g oral glucose tolerance test (OGTT). Subjects were then randomized to receive placebo or mifepristone for 9 days, of which the first 6 days the subjects returned home, and the final 3 days subjects underwent the same metabolic testing as during the baseline period. Subjects randomized to the mifepristone treatment arm were instructed to take one capsule (50 mg) every 6 hours (200 mg/day) over the course of 9 days. The placebo treatment arm received the same instructions to take one capsule every 6 hours over the course of the 9-day treatment period. Following the completion of the post-drug testing, subjects entered a 6-8 week washout period, after which they were crossed over to the other treatment arm, serving as their own controls for the study drug treatments.
# Data shown are mean±SEM with p values provided for the effects of treatment group, time, and the treatment-time interaction, which was obtained with repeated-measures ANOVA with post-hoc Bonferroni's test. Tukey box and whisker plots show ACTH (B) and cortisol (D) area under the curve for the 24-hour period. Top and bottom box limits represent the 75th and 25th percentile, respectively; midlines represent the median, and top and bottom whiskers represent the 75th percentile plus 1.5 of the interquartile range (IQR) and the 25th percentile minus 1.5 IQR, respectively. Post-treatment values were adjusted for baseline and treatment group using mixed-model regression. P values indicate significance for comparisons between mifepristone and placebo.
# [3] = Body weight, blood pressure and serum lipids after 9-day administration; details: 50 mg every 6 hours for 9 days; mean±SD, n=16
# Method: as §1
# Changes in body weight, BP and serum lipid concentrations for each study subject were evaluated at baseline and after 9-day administration of mifepristone or placebo, There were no significant differences observed in body weight or BMI between the treatment arms. BP was higher after mifepristone treatment for both systolic and diastolic values.
# [4] = Plasma hormone levels (testosterone, androstenedione, DHEA sulfate); details: 50 mg every 6 hours for 9 days, mean±SD
# Method: as §1
# [5] = Adverse events and safety laboratory monitoring; details: 50 mg every 6 hours for 9 days
# Method: All subjects were instructed to record any adverse effects and to report them to study personnel, and women were advised to keep a record of any abnormal menstrual bleeding. For proper safety monitoring, subjects returned approximately one week (day 19) and three weeks (day 33) after the discontinuation of the study drug for both treatment arms. During this safety visit, serum electrolytes, renal and liver function, and complete blood count were measured, as well as evaluation and treatment for potential treatment-related abnormalities/adverse events.
# [6] = 50 mg every 6 hours for 9 days, all subjects
smiles,measurement,setting,value
"CC#C[C@]1(O)CC[C@H]2[C@@H]3CCC4=CC(=O)CCC4=C3[C@@H](c3ccc(N(C)C)cc3)C[C@@]21C [Mifepristone, 11beta-[p-(dimethylamino)phenyl]-17alpha-(1-propynl)estra-4,9-dien-17beta-ol-3-one]",Fasting Glucose,[1]; post-treatment mean±SD,100.4 ± 15.3 mg/dL
same,Fasting Insulin,[1]; post-treatment mean±SD,95.7 ± 76.1 pmol/L and 95.6 ± 76.1 pmol/L
same,HOMA-IR,[1]; post-treatment mean±SD,3.58 ± 3.27
same,QUICKI,[1]; post-treatment mean±SD,0.332 ± 0.034
same,Adipose-tissue Insulin Resistance Index (Adipo-IR),"[1]; fasting FFA × fasting insulin, mean±SD",50.0±46.0 mmol×pmol/L
same,"ACTH area under the curve (AUC), 24-hour",[2]; [6],574.5 ± 260.8 pg·min/mL
same,"Cortisol area under the curve (AUC), 24-hour",[2]; [6],255.4 ± 61.9 µg·min/dL
same,"Serum cortisol AUC, subjects with higher 24-hr UFC","[2]; mifepristone arm, subgroup with higher 24-hr UFC",284.9 ± 39.9 µg·min/dL
same,"Serum cortisol AUC, subjects with normal 24-hr UFC","[2]; mifepristone arm, subgroup with normal 24-hr UFC",229.8 ± 68.5 µg·min/dL
same,Body-Mass Index,[3],32.2 ± 3.9 kg/m^2
same,Diastolic Blood Pressure,[3],77 ± 9.2 mmHg
same,HDL Cholesterol,[3],41.3 ± 11.9 mg/dL
same,LDL Cholesterol,[3],97.1 ± 34.6 mg/dL
same,Systolic Blood Pressure,[3],130 ± 13 mmHg
same,Total Cholesterol,[3],163.6 ± 419 mg/dL
same,Triglycerides,[3],125.6 ± 65.6 mg/dL
same,Androstenedione,[4]; n=16,110 ± 64.7 ng/dL
same,DHEA Sulfate,[4]; n=16,1.04 ± 0.64 µg/mL
same,Total testosterone (male),[4]; male subjects,235.2 ± 87.5 ng/dL
same,Serious adverse events,[5],No serious adverse events
